PubChem BioAssay AID2060885 (Molecular Pharmacology Branch, DTP, NCI, 2025)

Test system: NCI-H23 complex spheroids with HUVEC/MSC, viability
Test: Anticancer human tumor NCI-H23 cell line growth inhibition [RAS];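 further: spheroids exposed to compound for 7 days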;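 on viability, T/C: 100% = DMSO vehicle control viability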
Settings: for IC50: curve of first compound; for viability, T/C: stronger effect = lower value
Procedure, shortened: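 Multi-cell-type spheroids: tumor cells plus HUVEC endothelial cells and mesenchymal stem cells. RAS-pathway inhibitors were combined with targeted agents, each dosed in half-log steps down from clinical Cmax, or from 10 microM when Cmax was unknown.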

[1] = second compound 0.0316 µM, first compound 0.0316 µM
[2] = second compound 0.0316 µM, first compound 0.1 µM
[3] = second compound 0.0316 µM, first compound 0.316 µM
[4] = second compound 0.0316 µM, first compound 1 µM
[5] = second compound 0.0316 µM, first compound 3.16 µM
[6] = second compound 0.0316 µM, first compound 10 µM
[7] = second compound 0.1 µM, first compound 0.0316 µM
[8] = second compound 0.1 µM, first compound 0.1 µM
[9] = second compound 0.1 µM, first compound 0.316 µM
[10] = second compound 0.1 µM, first compound 1 µM
[11] = second compound 0.1 µM, first compound 3.16 µM
[12] = second compound 0.1 µM, first compound 10 µM
[13] = second compound 0.316 µM, first compound 0.0316 µM
[14] = second compound 0.316 µM, first compound 0.1 µM
[15] = second compound 0.316 µM, first compound 0.316 µM
[16] = second compound 0.316 µM, first compound 1 µM
[17] = second compound 0.316 µM, first compound 3.16 µM
[18] = second compound 0.316 µM, first compound 10 µM
[19] = second compound 1 µM, first compound 0.0316 µM
[20] = second compound 1 µM, first compound 0.1 µM
[21] = second compound 1 µM, first compound 0.316 µM
[22] = second compound 1 µM, first compound 1 µM
[23] = second compound 1 µM, first compound 3.16 µM
[24] = second compound 1 µM, first compound 10 µM
[25] = second compound 3.16 µM, first compound 0.0316 µM
[26] = second compound 3.16 µM, first compound 0.1 µM
[27] = second compound 3.16 µM, first compound 0.316 µM
[28] = second compound 3.16 µM, first compound 1 µM
[29] = second compound 3.16 µM, first compound 3.16 µM
[30] = second compound 3.16 µM, first compound 10 µM
[31] = second compound 10 µM, first compound 0.0316 µM
[32] = second compound 10 µM, first compound 0.1 µM
[33] = second compound 10 µM, first compound 0.316 µM
[34] = second compound 10 µM, first compound 1 µM
[35] = second compound 10 µM, first compound 3.16 µM
[36] = second compound 10 µM, first compound 10 µM

`CC(=O)OC12COC1CC(O)C1(C)C(=O)C(O)C3=C(C)C(OC(=O)C(O)C(NC(=O)OC(C)(C)C)c4ccccc4)CC(O)(C(OC(=O)c4ccccc4)C21)C3(C)C` (stereo not drawn) + C#Cc1c(F)ccc2cc(O)cc(-c3ncc4c(N5CC6CCC(C5)N6)nc(OCC56CCCN5CC(F)C6)nc4c3F)c12 was tested, and the IC50 (second compound 0.0316 µM) was < 31.6 nM, the IC50 (second compound 0.1 µM) was < 31.6 nM and the IC50 (second compound 0.316 µM) was < 31.6 nM. For the same compound, the IC50 (second compound 1 µM) was < 31.6 nM, the IC50 (second compound 3.16 µM) was < 31.6 nM and the IC50 (second compound 10 µM) was < 31.6 nM. For the same compound, the viability, T/C [1] was 30.7%, the viability, T/C [2] was 41.2% and the viability, T/C [3] was 37.2%. It also gave a viability, T/C [4] of 32.2%, a viability, T/C [5] of 47.1% and a viability, T/C [6] of 62.8%. The viability, T/C [7] was 27.8%, the viability, T/C [8] was 36.6% and the viability, T/C [9] was 34.6%. The viability, T/C [10] was 30.9%, the viability, T/C [11] was 56.1% and the viability, T/C [12] was 71.2%. For the same compound, the viability, T/C [13] was 34.1%, the viability, T/C [14] was 35.6% and the viability, T/C [15] was 31.3%. For the same compound, the viability, T/C [16] was 32%, the viability, T/C [17] was 46.1% and the viability, T/C [18] was 57.2%. For the same compound, the viability, T/C [19] was 27.3%, the viability, T/C [20] was 30.5% and the viability, T/C [21] was 32%. The viability, T/C [22] was 23.6%, the viability, T/C [23] was 36.4% and the viability, T/C [24] was 46.6%. For the same compound, the viability, T/C [25] was 20.1%, the viability, T/C [26] was 21.6% and the viability, T/C [27] was 21.2%. It also gave a viability, T/C [28] of 23.6%, a viability, T/C [29] of 25.6% and a viability, T/C [30] of 39%. It also gave a viability, T/C [31] of 17.9%, a viability, T/C [32] of 20.7% and a viability, T/C [33] of 16.5%. The viability, T/C [34] was 19.1%, the viability, T/C [35] was 23.1% and the viability, T/C [36] was 30.5%.

`Cc1nc(N2CCC3(CC2)COC(C)C3N)c(CO)nc1Sc1ccnc(N)c1Cl` (stereo not drawn) + C#Cc1c(F)ccc2cc(O)cc(-c3ncc4c(N5CC6CCC(C5)N6)nc(OCC56CCCN5CC(F)C6)nc4c3F)c12 was tested, and the IC50 (second compound 0.0316 µM) was > 10000 nM, the IC50 (second compound 0.1 µM) was 769 nM and the IC50 (second compound 0.316 µM) was 391 nM. For the same compound, the IC50 (second compound 1 µM) was 216 nM, the IC50 (second compound 3.16 µM) was 66.2 nM and the IC50 (second compound 10 µM) was < 31.6 nM. It also gave a viability, T/C [1] of 101%, a viability, T/C [2] of 110% and a viability, T/C [3] of 68.5%. For the same compound, the viability, T/C [4] was 62.7%, the viability, T/C [5] was 42.8% and the viability, T/C [6] was 48.3%. It also gave a viability, T/C [7] of 115%, a viability, T/C [8] of 110% and a viability, T/C [9] of 64.8%. It also gave a viability, T/C [10] of 48.6%, a viability, T/C [11] of 44.2% and a viability, T/C [12] of 41.5%. The viability, T/C [13] was 106%, the viability, T/C [14] was 95.2% and the viability, T/C [15] was 51.4%. For the same compound, the viability, T/C [16] was 45.5%, the viability, T/C [17] was 36% and the viability, T/C [18] was 39.5%. It also gave a viability, T/C [19] of 78.7%, a viability, T/C [20] of 60.7% and a viability, T/C [21] of 45.2%. The viability, T/C [22] was 35.3%, the viability, T/C [23] was 35.2% and the viability, T/C [24] was 32.6%. The viability, T/C [25] was 57.8%, the viability, T/C [26] was 45.7% and the viability, T/C [27] was 35.8%. For the same compound, the viability, T/C [28] was 29.6%, the viability, T/C [29] was 30.9% and the viability, T/C [30] was 26.9%. The viability, T/C [31] was 38.1%, the viability, T/C [32] was 35.2% and the viability, T/C [33] was 31.7%. For the same compound, the viability, T/C [34] was 26.1%, the viability, T/C [35] was 26.8% and the viability, T/C [36] was 18.2%.

Work on `NC1c2ccccc2OC12CCN(c1cnc3c(N4CCCc5ncccc54)n[nH]c3n1)CC2` (stereo not drawn) + C#Cc1c(F)ccc2cc(O)cc(-c3ncc4c(N5CC6CCC(C5)N6)nc(OCC56CCCN5CC(F)C6)nc4c3F)c12 yielded an IC50 (second compound 0.0316 µM) of 281 nM, an IC50 (second compound 0.1 µM) of 268 nM and an IC50 (second compound 0.316 µM) of 175 nM. For the same compound, the IC50 (second compound 1 µM) was 57 nM, the IC50 (second compound 3.16 µM) was < 31.6 nM and the IC50 (second compound 10 µM) was < 31.6 nM. The viability, T/C [1] was 69.3%, the viability, T/C [2] was 76.8% and the viability, T/C [3] was 47.3%. For the same compound, the viability, T/C [4] was 41.6%, the viability, T/C [5] was 35.7% and the viability, T/C [6] was 34%. It also gave a viability, T/C [7] of 74.9%, a viability, T/C [8] of 65% and a viability, T/C [9] of 45.8%. The viability, T/C [10] was 38.6%, the viability, T/C [11] was 33.9% and the viability, T/C [12] was 30.1%. The viability, T/C [13] was 76.3%, the viability, T/C [14] was 56.4% and the viability, T/C [15] was 40.3%. For the same compound, the viability, T/C [16] was 36.4%, the viability, T/C [17] was 31.4% and the viability, T/C [18] was 22.3%. For the same compound, the viability, T/C [19] was 58.4%, the viability, T/C [20] was 40.6% and the viability, T/C [21] was 32.8%. For the same compound, the viability, T/C [22] was 32.4%, the viability, T/C [23] was 21.7% and the viability, T/C [24] was 19.6%. The viability, T/C [25] was 38.5%, the viability, T/C [26] was 38.6% and the viability, T/C [27] was 31.5%. It also gave a viability, T/C [28] of 25.2%, a viability, T/C [29] of 21% and a viability, T/C [30] of 15.5%. It also gave a viability, T/C [31] of 28.4%, a viability, T/C [32] of 30.7% and a viability, T/C [33] of 19%. The viability, T/C [34] was 16.2%, the viability, T/C [35] was 15.5% and the viability, T/C [36] was 12.6%.

`Nc1ccn(C2OC(CO)C(O)C2(F)F)c(=O)n1` (stereo not drawn) + C#Cc1c(F)ccc2cc(O)cc(-c3ncc4c(N5CC6CCC(C5)N6)nc(OCC56CCCN5CC(F)C6)nc4c3F)c12 showed an IC50 (second compound 0.0316 µM) of 5.53 nM, an IC50 (second compound 0.1 µM) of 5.82 nM and an IC50 (second compound 0.316 µM) of 5.83 nM. For the same compound, the IC50 (second compound 1 µM) was 4.97 nM, the IC50 (second compound 3.16 µM) was < 3.16 nM and the IC50 (second compound 10 µM) was < 3.16 nM. It also gave a viability, T/C (second compound 0.0316 µM, first compound 0.00316 µM) of 79.1%, a viability, T/C (second compound 0.0316 µM, first compound 0.01 µM) of 19.3% and a viability, T/C [1] of 9.28%. It also gave a viability, T/C [2] of 9.72%, a viability, T/C [3] of 8.73% and a viability, T/C [4] of 9.82%. It also gave a viability, T/C (second compound 0.1 µM, first compound 0.00316 µM) of 86.3%, a viability, T/C (second compound 0.1 µM, first compound 0.01 µM) of 17.8% and a viability, T/C [7] of 8.54%. The viability, T/C [8] was 7.52%, the viability, T/C [9] was 10.5% and the viability, T/C [10] was 8.63%. For the same compound, the viability, T/C (second compound 0.316 µM, first compound 0.00316 µM) was 88.8%, the viability, T/C (second compound 0.316 µM, first compound 0.01 µM) was 15.8% and the viability, T/C [13] was 7.89%. The viability, T/C [14] was 5.29%, the viability, T/C [15] was 6.95% and the viability, T/C [16] was 7.88%. The viability, T/C (second compound 1 µM, first compound 0.00316 µM) was 74.8%, the viability, T/C (second compound 1 µM, first compound 0.01 µM) was 12.1% and the viability, T/C [19] was 4.25%. The viability, T/C [20] was 5%, the viability, T/C [21] was 5.26% and the viability, T/C [22] was 7.16%. It also gave a viability, T/C (second compound 3.16 µM, first compound 0.00316 µM) of 45.2%, a viability, T/C (second compound 3.16 µM, first compound 0.01 µM) of 5.88% and a viability, T/C [25] of 3.82%. The viability, T/C [26] was 2.55%, the viability, T/C [27] was 3.3% and the viability, T/C [28] was 3.59%. For the same compound, the viability, T/C (second compound 10 µM, first compound 0.00316 µM) was 23.2%, the viability, T/C (second compound 10 µM, first compound 0.01 µM) was 5.01% and the viability, T/C [31] was 4.01%. The viability, T/C [32] was 2.92%, the viability, T/C [33] was 3.19% and the viability, T/C [34] was 3.79%.
